Data as given in paper PMC6032384 (International Journal of Molecular Sciences, 2018).
Like-named read-outs stand apart in the source and are kept apart here.

Key:
[1] = system: BAD gene knockout immortalized mouse embryonic fibroblasts (BAD KO SV40 MEF); experiment: Alamar blue (AB) cytotoxicity assay, BAD KO SV40 MEF; type: cell-based; settings: 72 h
[2] = system: wild-type immortalized mouse embryonic fibroblasts (WT SV40 MEF); experiment: Alamar blue (AB) cytotoxicity assay, WT SV40 MEF; type: cell-based; settings: 72 h
HL-60 cells [3] = experiment: Cell morphology (May-Grunwald-Giemsa staining) and light scattering by flow cytometry; type: cell-based, human; settings: 24 and 48 h
HL-60 cells [4] = type: cell-based, human
Description: The internucleosomal DNA fragmentation and cell cycle distribution were assessed in HL-60 cells after 24 and 48 h of incubation with the [Ru(PPh3)2(Thy)(bipy)]PF6 complex in a DNA content-based assay using the dye propidium iodide (PI) and flow cytometry (Table 3). All DNA with a subdiploid size (sub-G0/G1) were considered to be fragmented. At concentrations of 1, 2, and 4 μM, the complex led to, respectively, 19.4%, 30.1%, and 36.2% DNA fragmentation after 24 h of incubation and to 12.5%, 26.7%, and 58.2% DNA fragmentation after 48 h of incubation.
(§1) Light scattering features were determined by flow cytometry. The internucleosomal DNA fragmentation and cell cycle distribution were determined according to Nicoletti et al.. For apoptosis measurements, a FITC Annexin V Apoptosis Detection Kit I (BD Biosciences, San Jose, CA, USA) was used, and the analysis was performed, according to the manufacturer’s instructions. A protection assay using the pan-caspase inhibitor Z-VAD(OMe)-FMK (Cayman Chemical, Ann Arbor, MI, USA) was also evaluated. The mitochondrial transmembrane potential was determined by the retention of the dye rhodamine 123 [28]. The levels of ROS were measured, as previously described, using 2′,7′-dichlorofluorescin diacetate (DCF-DA, Sigma-Aldrich Co.). At least 1 × 10^4 events were recorded per sample using a BD LSRFortessa cytometer along with BD FACSDiva Software (BD Biosciences) and Flowjo Software 10 (Flowjo LCC, Ashland, OR, USA). The cellular debris was omitted from the analysis.

[5] = system: MRC-5 (human lung fibroblast); experiment: Alamar blue (AB) cytotoxicity assay, MRC-5 noncancerous cells; type: cell-based; settings: MRC5 non-cancer cells, 72 h
HL-60 cells [6] = experiment: ROS levels (DCF-DA, flow cytometry); type: cell-based, human; settings: 1 or 3 h of incubation, data not shown
Description: The induction of ROS production is also an important mechanism for inducing apoptosis.
as §1

HL-60 cells [7] = experiment: Mitochondrial transmembrane potential (rhodamine 123, flow cytometry); type: cell-based, human; settings: rhodamine 123, 24 h
Description: (§2) Figure 6 Caspase-3 activity (A), assessed by a colorimetric assay after 48 h of incubation, and mitochondrial membrane potential (B), evaluated by flow cytometry using rhodamine 123 staining after 24 h of incubation, of HL-60 cells treatment with the [Ru(PPh3)2(Thy)(bipy)]PF6 complex (CRT). […] Data are presented as the mean ± S.E.M. of at the least three independent experiments. * p < 0.05 as compared with the negative control by ANOVA, followed by the Student Newman-Keuls test.
as §1, with “The cellular debris was omitted from the analysis.” left out

caspase-3 in HL-60 cells = experiment: Caspase-3 colorimetric assay; type: cell-based, human; settings: 48 h
Description: as §2
The cell lines that were used in this study were obtained from the American Type Culture Collection (ATCC) and were cultured, as described previously. Primary PBMCs were obtained with informed consent (# 031019/2013). All the cells were free of contamination, and the cell viability was determined by the TBE or AB assay, which were performed following the procedure that was described previously. The cell morphology analysis was performed using cytospin and May-Grunwald-Giemsa staining as described previously. To investigate caspase-3 activation, a caspase-3 colorimetric assay kit (Sigma-Aldrich Co.) was used.

HL-60 cells [8] = settings: TBE
[9] = system: B16-F10, HepG2, K562, and HL-60; set-up: method as in doi:10.1039/C7NJ04368F; settings: small panel of cancer cells (B16-F10, HepG2, K562, and HL-60), previous study; cited from earlier work
[10] = system: PBMC (human peripheral blood mononuclear cell); experiment: Alamar blue (AB) cytotoxicity assay, PBMC noncancerous cells; type: cell-based; settings: PBMC non-cancer cells, 72 h
HL-60 cells [11] = experiment: Annexin V-FITC/PI apoptosis assay by flow cytometry; type: cell-based, human
Description: Additionally, annexin V, which is a Ca^2+-dependent protein with high affinity for phosphatidylserine, was conjugated to a fluorochrome to detect phosphatidylserine exposure using flow cytometry. Since phosphatidylserine exposure precedes the loss of membrane integrity, annexin V staining was used along with the dye PI to identify early and late apoptotic cells, as well as necrotic cells. Therefore, annexin V-FITC/PI double staining was applied to HL-60 cells that were treated with the [Ru(PPh3)2(Thy)(bipy)]PF6 complex after 24 and 48 h of incubation, and the numbers of viable, early apoptotic, late apoptotic, and necrotic cells were quantified by flow cytometry (Figure 5).
Figure 5 Evaluation of the apoptosis induced by the [Ru(PPh3)2(Thy)(bipy)]PF6 complex (CRT) in HL-60 cells determined by flow cytometry using annexin V-FITC/PI staining after 24 and 48 h of incubation. (A) Representative flow cytometry dot plots. (B) Apoptotic cell quantification (annexin V-FITC positive cells). […] Data are presented as the mean ± S.E.M. of at the least three independent experiments. * p < 0.05 as compared with the negative control by ANOVA, followed by the Student Newman-Keuls test. […] Its quadrant percentages are just as hard to read: 24 h about Q1 0.640%, Q2 5.23%, Q4 85.6%, Q3 8.47%; 48 h about Q1 0.430%, Q2 3.07%, Q4 91.0%, Q3 5.52%.
as §1

tested cancer cell lines = experiment: Alamar blue cytotoxicity, summary over the tested cancer cell lines; type: cell-based; settings: AB assay, 72 h, most of the tested cancer cell lines
HL-60 cells [12] = experiment: Protection assay with pan-caspase inhibitor Z-VAD(OMe)-FMK (annexin V-FITC/PI); type: cell-based, human; settings: 50 µM Z-VAD(OMe)-FMK 2 h, then 4 μM CRT 48 h
Excerpt: Loss of the mitochondrial transmembrane potential is a critical step in intrinsic apoptosis, and activation of caspase-3 (an executioner caspase) favors DNA fragmentation.
Figure 7 Prevention of the apoptosis induced by the [Ru(PPh3)2(Thy)(bipy)]PF6 complex (CRT) in HL-60 cells by a pan-caspase inhibitor (Z-VAD(OMe)-FMK), as assessed by flow cytometry using annexin V-FITC/PI staining. (A) Representative flow cytometry dot plots. (B) Apoptotic cell quantification (annexin V-FITC positive cells). The cells were pretreated for 2 h with 50 µM Z-VAD(OMe)-FMK and then incubated with 4 μM CRT for 48 h. […]
as §1, with “For apoptosis measurements, a FITC Annexin V Apoptosis Detection Kit I (BD Biosciences, San Jose, CA, USA) was used, and the analysis was performed, according to the manufacturer’s instructions.” left out, “The cellular debris was omitted from the analysis.” left out

O=c1[nH]cc(F)c(=O)[nH]1 [5-fluorouracil]
IC50 ([1]; Mus musculus, Fibroblast): 11200 nM | IC50 ([2]; Mus musculus, Fibroblast): 5700 nM

Cc1c[nH]c(=O)[n-]c1=O.F[P-](F)(F)(F)(F)F.[Ru+2].c1ccc(-c2ccccn2)nc1.c1ccc(P(c2ccccc2)c2ccccc2)cc1.c1ccc(P(c2ccccc2)c2ccccc2)cc1 [CRT, [Ru(PPh3)2(Thy)(bipy)]PF6]
Cell morphology (HL-60 cells [3]; May-Grunwald-Giemsa-stained cells): cell morphology changes that were associated with apoptosis | Forward light scatter (FSC), cell shrinkage (HL-60 cells [3]; flow cytometry): decrease | Side scatter (SCC), nuclear condensation (HL-60 cells [3]; flow cytometry): increase | DNA content G0/G1 (HL-60 cells [4]; 1 µM, 24 h): 30.5 ± 4.8 % | DNA content G2/M (HL-60 cells [4]; 1 µM, 24 h): 18.5 ± 0.7% | DNA content S (HL-60 cells [4]; 1 µM, 24 h): 11.5 ± 1.7% | DNA content Sub-G0/G1 (DNA fragmentation) (HL-60 cells [4]; 1 µM, 24 h): 19.4 ± 3.9 % | DNA content Sub-G0/G1 (DNA fragmentation) (HL-60 cells [4]; 1 µM, 24 h, listed as [Ru(PPh3)2(Thy)(bipy)]PF6 complex): 19.4% | DNA content G0/G1 (HL-60 cells [4]; 1 µM, 48 h): 41.2 ± 9.6 % | DNA content G2/M (HL-60 cells [4]; 1 µM, 48 h): 10.8 ± 2.5% | DNA content S (HL-60 cells [4]; 1 µM, 48 h): 11.2 ± 2.4% | DNA content Sub-G0/G1 (DNA fragmentation) (HL-60 cells [4]; 1 µM, 48 h): 12.5 ± 3.5 % | DNA content Sub-G0/G1 (DNA fragmentation) (HL-60 cells [4]; 1 µM, 48 h, listed as [Ru(PPh3)2(Thy)(bipy)]PF6 complex): 12.5% | DNA content G0/G1 (HL-60 cells [4]; 2 µM, 24 h): 38.7 ± 2.2 % | DNA content G2/M (HL-60 cells [4]; 2 µM, 24 h): 17.9 ± 4.4% | DNA content S (HL-60 cells [4]; 2 µM, 24 h): 7.8 ± 1.5 % | DNA content Sub-G0/G1 (DNA fragmentation) (HL-60 cells [4]; 2 µM, 24 h): 30.1 ± 7.9 % | DNA content Sub-G0/G1 (DNA fragmentation) (HL-60 cells [4]; 2 µM, 24 h, listed as [Ru(PPh3)2(Thy)(bipy)]PF6 complex): 30.1% | DNA content G0/G1 (HL-60 cells [4]; 2 µM, 48 h): 42.6 ± 4.9 % | DNA content G2/M (HL-60 cells [4]; 2 µM, 48 h): 14.4 ± 2.5% | DNA content S (HL-60 cells [4]; 2 µM, 48 h): 10.5 ± 0.8 % | DNA content Sub-G0/G1 (DNA fragmentation) (HL-60 cells [4]; 2 µM, 48 h): 26.7 ± 7.0 % | DNA content Sub-G0/G1 (DNA fragmentation) (HL-60 cells [4]; 2 µM, 48 h, listed as [Ru(PPh3)2(Thy)(bipy)]PF6 complex): 26.7% | DNA content G0/G1 (HL-60 cells [4]; 4 µM, 24 h): 36.3 ± 3.1 % | DNA content G2/M (HL-60 cells [4]; 4 µM, 24 h): 13.2 ± 4.1% | DNA content S (HL-60 cells [4]; 4 µM, 24 h): 10.4 ± 2.4% | DNA content Sub-G0/G1 (DNA fragmentation) (HL-60 cells [4]; 4 µM, 24 h): 36.2 ± 9.5 % | DNA content Sub-G0/G1 (DNA fragmentation) (HL-60 cells [4]; 4 µM, 24 h, listed as [Ru(PPh3)2(Thy)(bipy)]PF6 complex): 36.2% | DNA content G0/G1 (HL-60 cells [4]; 4 µM, 48 h): 28.4 ± 5.9 % | DNA content G2/M (HL-60 cells [4]; 4 µM, 48 h): 5.5 ± 2.6 % | DNA content S (HL-60 cells [4]; 4 µM, 48 h): 4.4 ± 1.2 % | DNA content Sub-G0/G1 (DNA fragmentation) (HL-60 cells [4]; 4 µM, 48 h): 58.2 ± 8.8 % | DNA content Sub-G0/G1 (DNA fragmentation) (HL-60 cells [4]; 4 µM, 48 h, listed as [Ru(PPh3)2(Thy)(bipy)]PF6 complex): 58.2% | IC50 [5]: 11500 nM | IC50 [1]: 2400 nM | ROS levels (HL-60 cells [6]): did not induce a significant increase | Mitochondrial transmembrane potential (HL-60 cells [7]): caused the loss of the mitochondrial transmembrane potential | Caspase-3 activity (caspase-3 in HL-60 cells): induced activation of caspase-3 | Reduction of the number of viable cells (HL-60 cells [8]; 1 μM, 24 h): 32.5% | Reduction of the number of viable cells (HL-60 cells [8]; 1 μM, 48 h): 62.6% | Reduction of the number of viable cells (HL-60 cells [8]; 2 μM, 24 h): 49.1% | Reduction of the number of viable cells (HL-60 cells [8]; 2 μM, 48 h): 66.6% | Reduction of the number of viable cells (HL-60 cells [8]; 4 μM, 24 h): 59.1% | Reduction of the number of viable cells (HL-60 cells [8]; 4 μM, 48 h): 73.4% | Number of nonviable cells (HL-60 cells [8]; 1, 2 and 4 μM, 24 and 48 h): No significant increase | IC50 [9]: < 2000 nM | IC50 [10]: 1700 nM | Effect of pretreatment with antioxidant N-acetyl-L-cysteine (NAC) on the increase in apoptotic cells (HL-60 cells [11]; NAC pretreatment, data not shown): did not prevent | Percentage of apoptotic cells (early apoptotic cells + late apoptotic cells) (HL-60 cells [11]; annexin V-FITC/PI, 24 and 48 h): significant increase | Percentage of necrotic cells (HL-60 cells [11]; annexin V-FITC/PI, 24 and 48 h): No significant increase | IC50 [2]: 2200 nM | IC50 (tested cancer cell lines): < 3000 nM | Effect of pan-caspase inhibitor Z-VAD(OMe)-FMK on the complex-induced increase in apoptotic cells (HL-60 cells [12]): partially prevented
